Assays:
[1] = system: HBV AD38 viral particles in HepG2 cell line overexpressing NTCP; test: HBV DNA Quantification Assay; type: cell-based; conditions: Hepatitis B virus, HepG2, 120 h, HBV-infected HepG2-NTCP cells, 5 days incubation, HBV DNA in culture supernatant (QuantiGene 2.0); geometric mean of a minimum of four determinations
Description: HBV DNA Quantification Assay
A HepG2 cell line overexpressing the HBV virus attachment receptor sodium-taurocholate cotransporting polypeptide (NTCP) was grown to confluency in DMEM growth medium, Dulbecco's Modified Eagle Medium without sodium pyruvate (Life Technologies, Rockville, Md.) supplemented with 10% FBS (Thermo Scientific, Waltham, Md.), 1% penicillin/streptomycin (Life Technologies, Rockville, Md.) and 2 mM L-glutamine (Life Technologies, Rockville, Md.) in T175 flasks. Cells were infected with HBV AD38 viral particles (Texcell, Frederick, USA) at 4000 genome equivalents per cell. After allowing viral infection to take place for 4 days, the infected cells were harvested from the flasks by trypsinization, washed twice with OptiMEM (Life Technologies, Rockville, Md.) and re-suspended in DMEM containing 2% FBS and 1% DMSO at a density of 0.25E6 cells/ml. Infected cells were seeded on 384 well collagen coated plates (Greiner, Austria) at a density of 20,000 cells/well containing serially diluted compounds of the present disclosure or DMSO (0.5%) in a final volume of 80 μl. The assay plates were incubated for a period of 5 days and the antiviral activity of the test compounds were assayed by detecting the presence of HBV DNA in the culture supernatant using the QuantiGene™ 2.0 nucleic acid quantification kit (Affymetrix, Santa Clara, Calif.).
The culture supernatant was harvested and treated with lysis buffer containing Proteinase K (Affymetrix, Santa Clara, Calif.). The supernatant was incubated with HBV viral DNA specific probes (Affymetrix, Santa Clara, Calif.) for 30 minutes at 55° C. This was followed by addition of 0.2M NaOH for 30 minutes at room temperature to denature the DNA, followed by addition of Neutralization buffer (Affymetrix, Santa Clara, Calif.). The resulting lysed and neutralized supernatant was then added to QuantiGene™ 2.0 384 well plates coated with capture oligonucleotides and incubated overnight at 55° C. The HBV specific probe set consists of Capture Extender oligonucleotides (CE's) and blocking probes. Following the overnight incubation, the wells were incubated for one hour sequentially with a Pre-Amplifier, Amplifier and Labeled probes conjugated to alkaline phosphatase with a wash step between incubations. After the final wash step, the alkaline phosphatase substrate (Luminol APS5) was added and the resulting luminescence signal was read in an EnVision Multilabel Plate Reader (PerkinElmer, Santa Clara, Calif.). The EC50 values were calculated from the fit of the dose—response curves to a four-parameter equation. All EC50 values represent geometric mean values of a minimum of four determinations.

[2] = Hepatic Stability Assay (in vitro half-life method); type: in vitro ADME; set-up: dose or concentration left out as unconfirmed; conditions: pooled cryopreserved hepatocytes, 37° C., 1×10^6 cells/mL, 0-6 hours, LC-MS/MS, 39.5 hours is the maximum detectable half life, read-out: t½ (converted)
Outline: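 Pooled cryopreserved hepatocytes (1×10^6 cells/mL) incubated with compound at […] test concentration, 37° C.; samples at 0, 1, 3 and 6 h quantified by LC-MS/MS. Half-life from rate of compound disappearance, scaled to predicted hepatic clearance via well-stirred model.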

SMILES	EC50 [1] [nM]	half-life [2] [h]
Cc1c(C(=O)C(=O)NC2(c3c[nH]nn3)CC(F)(F)C2)c2n(c1C(=O)Nc1ccnc(C(F)F)c1F)[C@@H]1C[C@@H]1C2 [Example 80, (1aR,6aR)-5-(2-((3,3-difluoro-1-(1H-1,2,3-triazol-4-yl)cyclobutyl)amino)-2-oxoacetyl)-N-(2-(difluoromethyl)-3-fluoropyridin-4-yl)-4-methyl-1,1a,6,6a-tetrahydrocyclopropa[b]pyrrolizine-3-carboxamide]	8.7	6.3
CNC(=O)C(C)(C)NC(=O)C(=O)c1c(C)c(C(=O)Nc2cc(F)c(F)c(F)c2)n2c1CCC2 [Example 83, 6-methyl-7-(2-((2-methyl-1-(methylamino)-1-oxopropan-2-yl)amino)-2-oxoacetyl)-N-(3,4,5-trifluorophenyl)-2,3-dihydro-1H-pyrrolizine-5-carboxamide]	199	19.2
CNC(=O)[C@](C)(NC(=O)C(=O)c1c(C)c(C(=O)Nc2ccc(F)c(F)c2)n2c1CCC2)C(F)(F)F [Example 138, (S)—N-(3,4-difluorophenyl)-6-methyl-7-(2-oxo-2-((1,1,1-trifluoro-2-methyl-3-(methylamino)-3-oxopropan-2-yl)amino)acetyl)-2,3-dihydro-1H-pyrrolizine-5-carboxamide]	160	17.9
Cc1c(C(=O)C(=O)NC2(c3c[nH]nn3)CC2)c2n(c1C(=O)Nc1ccc(F)c(Cl)c1)C[C@H](F)C2 [Example 45, (R)-7-(2-((1-(1H-1,2,3-triazol-4-yl)cyclopropyl)amino)-2-oxoacetyl)-N-(3-chloro-4-fluorophenyl)-2-fluoro-6-methyl-2,3-dihydro-1H-pyrrolizine-5-carboxamide]	9.1	13.3
Cc1c(C(=O)C(=O)NC2(c3c[nH]nn3)CC(F)(F)C2)c2n(c1C(=O)Nc1ccc(F)cc1)CCC2 [Example 32, 7-(2-((3,3-difluoro-1-(1H-1,2,3-triazol-4-yl)cyclobutyl)amino)-2-oxoacetyl)-N-(4-fluorophenyl)-6-methyl-2,3-dihydro-1H-pyrrolizine-5-carboxamide]	8.5	8.8
CNC(=O)[C@@](C)(NC(=O)C(=O)c1c(C)c(C(=O)Nc2ccc(F)c(F)c2)n2c1CCC2)C(F)(F)F [Example 137, (R)—N-(3,4-difluorophenyl)-6-methyl-7-(2-oxo-2-((1,1,1-trifluoro-2-methyl-3-(methylamino)-3-oxopropan-2-yl)amino)acetyl)-2,3-dihydro-1H-pyrrolizine-5-carboxamide]	158	7.4
Cc1c(C(=O)C(=O)NC2(c3c[nH]nn3)CC2)c2n(c1C(=O)Nc1cccc(Cl)c1)CCC2 [Example 74, 7-(2-((1-(1H-1,2,3-triazol-4-yl)cyclopropyl)amino)-2-oxoacetyl)-N-(3-chlorophenyl)-6-methyl-2,3-dihydro-1H-pyrrolizine-5-carboxamide]	42	22.2
Cc1c(C(=O)C(=O)NC2(c3c[nH]nn3)CC2)c2n(c1C(=O)Nc1cc(F)cc(C#N)c1)CCC2 [Example 126, 7-(2-((1-(1H-1,2,3-triazol-4-yl)cyclopropyl)amino)-2-oxoacetyl)-N-(3-cyano-5-fluorophenyl)-6-methyl-2,3-dihydro-1H-pyrrolizine-5-carboxamide]	166	10.7
Cc1c(C(=O)C(=O)NC2(c3c[nH]nn3)CC2)c2n(c1C(=O)Nc1ccc(F)c(F)c1F)CCC2 [Example 111, 7-(2-((1-(1H-1,2,3-triazol-4-yl)cyclopropyl)amino)-2-oxoacetyl)-6-methyl-N-(2,3,4-trifluorophenyl)-2,3-dihydro-1H-pyrrolizine-5-carboxamide]	154	10.1
CNC(=O)C1(NC(=O)C(=O)c2c(C)c(C(=O)Nc3ccc(F)c(Cl)c3)n3c2CCC3)CC1 [Example 105, N-(3-chloro-4-fluorophenyl)-6-methyl-7-(2-((1-(methylcarbamoyl)cyclopropyl)amino)-2-oxoacetyl)-2,3-dihydro-1H-pyrrolizine-5-carboxamide]	170	24.3
CNC(=O)C1(NC(=O)C(=O)c2c(C)c(C(=O)Nc3cc(F)c(F)c(F)c3)n3c2CCC3)CC(F)(F)C1 [Example 36, 7-(2-((3,3-difluoro-1-(methylcarbamoyl)cyclobutyl)amino)-2-oxoacetyl)-6-methyl-N-(3,4,5-trifluorophenyl)-2,3-dihydro-1H-pyrrolizine-5-carboxamide]	24	26.5
Cc1c(C(=O)C(=O)NC2(C(=O)N3CC(F)C3)CC(F)(F)C2)c2n(c1C(=O)Nc1ccc(F)c(Cl)c1)CCC2 [Example 14, N-(3-chloro-4-fluorophenyl)-7-(2-((3,3-difluoro-1-(3-fluoroazetidine-1-carbonyl)cyclobutyl)amino)-2-oxoacetyl)-6-methyl-2,3-dihydro-1H-pyrrolizine-5-carboxamide]	8.8	2.1
Cc1c(C(=O)C(=O)NC2(c3c[nH]nn3)CC(F)(F)C2)c2n(c1C(=O)Nc1ccc(F)c(C#N)c1)CCC2 [Example 37, N-(3-cyano-4-fluorophenyl)-7-(2-((3,3-difluoro-1-(1H-1,2,3-triazol-4-yl)cyclobutyl)amino)-2-oxoacetyl)-6-methyl-2,3-dihydro-1H-pyrrolizine-5-carboxamide]	5.6	10.9
Cc1c(C(=O)C(=O)NC2(c3cnn[nH]3)CC2)c2n(c1C(=O)Nc1ccc(F)cc1F)CCC2 [Example 93, 7-(2-((1-(1H-1,2,3-triazol-5-yl)cyclopropyl)amino)-2-oxoacetyl)-N-(2,4-difluorophenyl)-6-methyl-2,3-dihydro-1H-pyrrolizine-5-carboxamide]	254	29.9
Cc1c(C(=O)C(=O)NC2(c3c[nH]nn3)CC(F)(F)C2)c2n(c1C(=O)Nc1cc(F)c(F)c(F)c1)[C@@H]1C[C@@H]1C2 [Example 40, (1aR,6aR)-5-(2-((3,3-difluoro-1-(1H-1,2,3-triazol-4-yl)cyclobutyl)amino)-2-oxoacetyl)-4-methyl-N-(3,4,5-trifluorophenyl)-1,1a,6,6a-tetrahydrocyclopropa[b]pyrrolizine-3-carboxamide]	1.9	5.2
Cc1c(C(=O)C(=O)NC2(c3c[nH]nn3)CC(F)(F)C2)c2n(c1C(=O)Nc1ccc(F)c(Cl)c1)[C@@H]1C[C@@H]1C2 [Example 39, (1aR,6aR)—N-(3-chloro-4-fluorophenyl)-5-(2-((3,3-difluoro-1-(1H-1,2,3-triazol-4-yl)cyclobutyl)amino)-2-oxoacetyl)-4-methyl-1,1a,6,6a-tetrahydrocyclopropa[b]pyrrolizine-3-carboxamide]	2.1	4.2
Cc1c(C(=O)C(=O)NC2(c3c[nH]nn3)CC(F)(F)C2)c2n(c1C(=O)Nc1ccc(F)c(F)c1)CCC2 [Example 31, 7-(2-((3,3-difluoro-1-(1H-1,2,3-triazol-4-yl)cyclobutyl)amino)-2-oxoacetyl)-N-(3,4-difluorophenyl)-6-methyl-2,3-dihydro-1H-pyrrolizine-5-carboxamide]	3.2	8.6

Source: patent US10328053B2 (Gilead Sciences, Inc., priority 2016, dated 2019)
